Series [1] can be described thus: In vivo pharmacokinetics in beagle dogs. Conditions: dog, plasma, po, gavage, 10 mg/kg.
The next series concerns the target T1, CYP2C8 (Homo sapiens, UniProt P10632).
T1 sequence (P10632 1-490): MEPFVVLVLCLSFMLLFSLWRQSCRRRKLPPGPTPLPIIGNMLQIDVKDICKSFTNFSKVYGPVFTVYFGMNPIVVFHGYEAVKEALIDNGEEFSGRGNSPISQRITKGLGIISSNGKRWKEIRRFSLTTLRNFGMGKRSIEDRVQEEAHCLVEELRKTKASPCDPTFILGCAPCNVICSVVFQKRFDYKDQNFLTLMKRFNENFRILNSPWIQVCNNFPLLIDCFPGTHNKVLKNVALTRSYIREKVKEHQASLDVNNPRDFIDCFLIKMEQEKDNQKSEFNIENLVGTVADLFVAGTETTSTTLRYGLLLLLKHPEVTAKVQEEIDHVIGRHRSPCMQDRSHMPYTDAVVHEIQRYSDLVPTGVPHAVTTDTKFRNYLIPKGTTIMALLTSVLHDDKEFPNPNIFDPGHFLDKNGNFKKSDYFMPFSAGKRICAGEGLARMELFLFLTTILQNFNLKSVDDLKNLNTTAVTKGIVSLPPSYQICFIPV
As to the kind of experiment: Direct inhibition test (DI test) in human liver microsomes, CYP2C8. Format: in vitro ADME. Conditions: read-out: inhibitory IC50 on CYP 2C8. How it is done: (§1) (2) Direct inhibition test (DI test): 1004 of human liver microsomes (final concentration was 0.2 mg/mL) system was subjected to inhibition incubation directly, the system contains NADPH (final concentration was 1 mM), 10 μM compound, positive inhibitor cocktail (ketoconazole 10 μM, quinidine 10 μM, sulfapyrazole 100 μM, a-naphthoflavone 10 μM, tranylcypromine […]), negative control (0.1% DMSO BPS) and mixed probe substrate (midazolam 1004, testosterone 10004, dextromethorphan 10 μM, diclofenac 20 μM, phenacetin 100 μM, mephenytoin 100 μM), the reaction was terminated after incubation for 20 min. The relative enzyme activity was calculated by measuring the relative production of metabolites.

Another series concerns IEC6. The series is described as follows: Proliferation inhibition of IEC6 cells. Format: cell-based. Conditions: Rattus norvegicus, IEC-6; IEC6 cell line; read-out: proliferation inhibitory activity IC50. How it is done: (§2) The proliferation inhibitory activity of some of the embodiment compounds against different cell lines such as LNCAP (+R1881), SKM-1, 22RV1, DU145, MOLM13, MDA-PCA-2b, KASUMI 1, THP-1, KG-1, IEC6, H1299, etc., was tested using similar methods in test embodiment 2 and in the literature.

Another series concerns the target T2, CYP1A2 (Homo sapiens, UniProt P05177).
T2 construct: human liver microsomes (final concentration was 0.2 mg/mL); from tissue; host or cells: human liver microsomes
T2 sequence (P05177 1-516): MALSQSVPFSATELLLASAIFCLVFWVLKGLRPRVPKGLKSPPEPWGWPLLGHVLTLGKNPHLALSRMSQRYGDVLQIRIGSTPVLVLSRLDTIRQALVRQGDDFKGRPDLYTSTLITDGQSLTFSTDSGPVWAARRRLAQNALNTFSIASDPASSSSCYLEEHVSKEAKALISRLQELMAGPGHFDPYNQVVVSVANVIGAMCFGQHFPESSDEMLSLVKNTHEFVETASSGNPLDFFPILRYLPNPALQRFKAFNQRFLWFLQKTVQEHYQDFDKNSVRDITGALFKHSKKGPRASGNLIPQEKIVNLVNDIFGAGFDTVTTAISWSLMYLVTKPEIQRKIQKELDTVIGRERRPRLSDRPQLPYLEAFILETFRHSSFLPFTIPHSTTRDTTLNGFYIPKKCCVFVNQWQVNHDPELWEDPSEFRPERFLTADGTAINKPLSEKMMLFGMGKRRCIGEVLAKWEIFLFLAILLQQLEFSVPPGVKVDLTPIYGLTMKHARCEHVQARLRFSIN
The series is described as follows: Direct inhibition test (DI test) in human liver microsomes, CYP1A2. It is filed as in vitro ADME. Conditions: read-out: inhibitory IC50 on CYP1A2. How it is done: as §1
(In general: Liver microsomes are vesicles of endoplasmic reticulum, rich in cytochrome P450 enzymes.)

In another series the target is T3, CYP2C19 (Homo sapiens, UniProt P33261).
T3 construct: human liver microsomes (final concentration was 0.2 mg/mL); from tissue; host or cells: human liver microsomes
As to the kind of experiment: Direct inhibition test (DI test) in human liver microsomes, CYP2C19. Format: in vitro ADME. Conditions: read-out: inhibitory IC50 on CYP 2C19. The procedure:
as §1

Another series deals with T4, BRD4-BD1 (Homo sapiens, UniProt O60885).
T4 construct: purchased ReactionBiologyCorp; (RBC)
The series is described as follows: BRD4 AlphaScreen determination (BD1). Format: binding. How it is done: (1) 1× Assay buffer was prepared according to the kit requirements of ReactionBiologyCorp. (RBC). (2) Compound concentration gradient preparation: the test compounds were tested at final concentrations starting at 10 μM, with 10 concentrations at 3-fold dilution and single well test was set for each concentration. The positive control compound(+)-JQ-1 was tested at final concentrations starting at 1 μM, with 10 concentrations at 3-fold dilution, and duplicated well test was set for each concentration. The solution was gradient diluted to the corresponding 1000-fold final concentration in a 384-well Source plate, and then 20 nL of the solution was transferred to the 384-well reaction plate with Echo550 to be measured. 20 nL of 100% DMSO was transferred to the Max well, and the highest concentration of the positive compounds were transferred to the Min wells. […] (6) 5 μL of 4× peptide solution was added to each well of the reaction plate, centrifuged at 1000 rpm for 1 min. (7) 10 μL of the assay solution was added, centrifuged at 1000 rpm for 60 seconds, the solution was mixed with gentle shaking, and incubated at room temperature for 60 minutes. (8) Reading with EnVision. (9) The IC50 values of the compounds for protein binding inhibition was obtained by fitting the dose-effect curve with the analytical software GraphPad Prism 5. (See Table 1 for specific values)
In general terms: In Alpha technology, singlet oxygen from a donor bead excites a nearby acceptor bead.

In series [2] the test system is MV 4-11 transplanted tumor. The series is described as follows: Growth inhibition of MV 4-11 transplanted tumor in nude mice. It is filed as in vivo. Conditions: for inhibitory rate (growth of transplanted tumor): dose of 15 mpk, oral, daily; for tolerability in experimental animals / tumor inhibitory effect: higher doses, 50 mg/kg-100 mg/kg. How it is done:
The tumor tissue in vigorous growth stage was cut into about 1.5 mm^3 and inoculated subcutaneously in the right armpit of nude mice under sterile conditions. The diameter of subcutaneous transplanted tumor in nude mice was measured with vernier caliper, and the animals were randomly divided into groups when the average tumor volume was about 130 mm^3. […] During the whole experiment, the diameter of the transplanted tumor was measured twice a week, and the weight of mice was weighed at the same time. The calculation formula of tumor volume (TV) was: TV=½×a×b^2, wherein a and b represent the length and width respectively. The relative tumor volume (RTV) was calculated according to the measurement results, and the calculation formula was: RTV=VT/v0. Wherein VO is the tumor volume measured during the administration in cage (i.e., d0), and Vt is the tumor volume at each measurement.

Series [3] deals with most AML cell lines and prostate cancer cell lines. The series is described as follows: Proliferation inhibition of different cell lines: AML and prostate cancer lines. Format: cell-based. Conditions: read-out: proliferation inhibitory activity IC50. The procedure: as §2
In series [4] the test system is LNCAP, SKM-1, MOLM13, KASUMI 1, THP-1, KG-1. The series is described as follows: Proliferation inhibition of different cell lines: most sensitive lines. It is filed as cell-based. Conditions: some cell lines such as LNCAP, read-out: proliferation inhibitory activity IC50. How it is done: as §2

Data on 2 compounds can be found in patent US12459939B2 (SHANGHAI RINGENE BIOPHARMA CO., LTD., priority 2019, dated 2025).

Like-named read-outs stand apart in the source and are kept apart here.

For orientation: AUC means the area under the concentration-time curve, a measure of exposure. A lower AUC goes with low exposure. Broadly, the Cmax is the maximum level reached in the sampled fluid or tissue. As usually defined, the half-life is the time needed for the level to fall by half in the phase considered.

T3 sequence (P33261 whole entry): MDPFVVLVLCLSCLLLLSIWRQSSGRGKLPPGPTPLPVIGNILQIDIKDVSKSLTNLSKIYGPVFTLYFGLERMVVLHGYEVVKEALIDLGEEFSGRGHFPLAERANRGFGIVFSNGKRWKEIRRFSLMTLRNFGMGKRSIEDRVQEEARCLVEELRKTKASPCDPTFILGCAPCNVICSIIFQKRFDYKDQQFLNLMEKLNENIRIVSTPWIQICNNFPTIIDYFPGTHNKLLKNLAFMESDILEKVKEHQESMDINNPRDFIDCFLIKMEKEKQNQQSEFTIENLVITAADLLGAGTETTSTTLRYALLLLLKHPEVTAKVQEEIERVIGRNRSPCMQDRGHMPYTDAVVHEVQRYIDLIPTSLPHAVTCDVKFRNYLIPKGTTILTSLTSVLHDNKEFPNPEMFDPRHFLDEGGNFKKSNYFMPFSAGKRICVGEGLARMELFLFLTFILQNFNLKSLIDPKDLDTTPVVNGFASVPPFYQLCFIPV

For the compound `Cc1cc(F)cc(C)c1Oc1ccc(C(C)(C)O)cc1-c1cn(C)c(=O)c2cc(C(=O)NC3CC(F)(F)C3)[nH]c12` [Embodiment 18, N-(3,3-difluorocyclobutyl)-7-(2-(4-fluoro-2,6-dimethylphenoxy)-5-(2-hydroxyprop-2-yl)phenyl)-5-methyl-4-oxo-4,5-dihydro-1H-pyrrolo[3,2-c] pyridine-2-amide], the AUC in series [1] is above 15 µM·h. Besides, the Cmax in series [1] came out at 2000 nM. This compound gave a half-life in series [1] above 2 h. Besides, the IC50 at 20 min on CYP2C8 was above 15000 nM. Besides, the IC50 was above 1000 nM with IEC6; above 15000 nM at CYP1A2; above 15000 nM on CYP2C19; 117 nM on BRD4-BD1 (AlphaScreen, protein binding inhibition, read-out: BRD4-BD1 IC50); below 1000 nM in series [3]; below 100 nM in series [4]. Also, the “inhibitory rate (growth of transplanted tumor)” value in series [2] worked out at 82%. Besides, in series [2], the “tolerability in experimental animals” value is on record as “tolerate it well”. In addition, the tumor inhibitory effect result in [2] is on record as “obvious”.
Consider `CCNC(=O)c1cc2c(=O)n(C)cc(-c3cc(C(C)(C)O)ccc3Oc3c(C)cc(F)cc3C)c2[nH]1` [compound 1, reference compound], for which the AUC in series [1] was above 15 µM·h. In addition, the Cmax in series [1] was 2000 nM. This compound also gave a half-life in [1] above 2 h. Further, the IC50 at 20 min at CYP2C8 is above 15000 nM. Also, the IC50 in the series with IEC6 is above 1000 nM; on CYP1A2 it was above 15000 nM; at CYP2C19 it was above 15000 nM; on BRD4-BD1, 40 nM; in series [3], below 1000 nM; in [4], below 100 nM. Moreover, the “inhibitory rate (growth of transplanted tumor)” value in series [2] is recorded as 82%. Further, the “tolerability in experimental animals” value in series [2] was “tolerate it well”. Also, the tumor inhibitory effect entry in series [2] was “obvious”.
